pKd: −log10 of the molar value.
Assays:
[1] = biological target: T1, kinase domain protein of RC kinase (RCK) (Homo sapiens, UniProt Q56UN5); assay: Kinase competition binding assay (Kd, qPCR readout), RC kinase; settings: Kd class, read-out: RCK Activity Level
T1 construct: made in house; host or cells: E. coli BL21-derived host (T7 phage) or HEK-293
T1 sequence (Q56UN5 1061-1324 limits assumed): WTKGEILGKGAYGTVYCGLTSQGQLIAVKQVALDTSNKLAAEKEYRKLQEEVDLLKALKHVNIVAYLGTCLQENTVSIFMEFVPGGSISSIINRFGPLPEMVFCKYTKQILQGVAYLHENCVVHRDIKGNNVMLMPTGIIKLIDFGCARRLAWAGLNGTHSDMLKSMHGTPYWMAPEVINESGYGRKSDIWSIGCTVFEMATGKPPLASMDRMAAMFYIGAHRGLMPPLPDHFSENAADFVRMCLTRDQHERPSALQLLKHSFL
Procedure: (§1) For most assays, kinase-tagged T7 phage strains were prepared in an E. coli host derived from the BL21 strain. E. coli were grown to log-phase and infected with T7 phage and incubated with shaking at 32° C. until lysis. The lysates were centrifuged and filtered to remove cell debris. The remaining kinases were produced in HEK-293 cells and subsequently tagged with DNA for quantitative PCR (qPCR) detection.
(§2) Streptavidin-coated magnetic beads were treated with biotinylated small molecule ligands for 30 minutes at room temperature to generate affinity resins for kinase assays. The liganded beads were blocked with excess biotin and washed with blocking buffer (SeaBlock (Pierce), 1% BSA, 0.05% Tween 20, 1 mM DTT) to remove unbound ligand and to reduce nonspecific binding. Binding reactions were assembled by combining kinases, liganded affinity beads, and test compounds in 1× binding buffer (20% SeaBlock, 0.17×PBS, 0.05% Tween 20, 6 mM DTT). All reactions were performed in polystyrene 96-well plates in a final volume of 0.135 mL. The assay plates were incubated at room temperature with shaking for 1 hour and the affinity beads were washed with wash buffer (1×PBS, 0.05% Tween 20). The beads were then re-suspended in elution buffer (1×PBS, 0.05% Tween 20, 0.5 μM non-biotinylated affinity ligand) and incubated at room temperature with shaking for 30 minutes. The kinase concentration in the eluates was measured by qPCR.
(§3) An 11-point 3-fold serial dilution of each test compound was prepared in 100% DMSO at 100× final test concentration and subsequently diluted to 1× in the assay (final DMSO concentration=1%). Most Kd values were determined using a compound top concentration=30,000 nM. If the initial Kd determined was <0.5 nM, (the lowest concentration tested), the measurement was repeated with a serial dilution starting at a lower top concentration. A more detailed description of this assay may be found in Fabian, M. A. et al. Nat. Biotechnol. 2005, 23, 329-336, which is incorporated herein in its entirety.
(§4) The biological results of inhibition of the kinase domain protein of RC kinase (RCK) and JAK2 and JAK3 are summarized in Tables 2 and 3, wherein A represents a Kd of <50 nM; B represents 50 nM<Kd<100 nM; C represents 100 nM<Kd<1000 nM; and D represents a Kd>1000 nM.

JAK3 = biological target: T2, JAK3 (Homo sapiens, UniProt P52333); assay: Kinase competition binding assay (Kd, qPCR readout), JAK3; settings: for pKd: Kd class, JAK3, read-out: JAK3 Activity Level; for RCK:JAK3 selectivity ratio: ratio Kd (JAK3): Kd (RCK)
T2 construct: made in house; host or cells: E. coli BL21-derived host (T7 phage) or HEK-293
Procedure: as §1, §2, §3, §4
Similarly, RCK:JAK3 selectivity, as measured by the ratio Kd (JAK3): Kd (RCK) is represented as follows: A represents Kd (JAK3): Kd (RCK)>100; B represents 10<Kd (JAK3): Kd (RCK)<100; C represents 1<Kd (JAK3): Kd (RCK)<10; and D represents Kd (JAK3): Kd(RCK)<1.

JAK2 = biological target: T3, JAK2 (Homo sapiens, UniProt O60674); assay: Kinase competition binding assay (Kd, qPCR readout), JAK2; settings: for pKd: Kd class, JAK2, read-out: JAK2 Activity Level; for RCK:JAK2 selectivity ratio: ratio Kd (JAK2): Kd(RCK)
T3 construct: made in house; host or cells: E. coli BL21-derived host (T7 phage) or HEK-293
Procedure: as §1, §2, §3, §4
Additionally, RCK:JAK2 selectivity, as measured by the ratio Kd (JAK2): Kd(RCK) is represented as follows: A represents Kd (JAK2): Kd (RCK)>100; B represents 10<Kd(JAK2): Kd (RCK)<100; C represents 1<Kd (JAK2): Kd (RCK)<10; and D represents Kd(JAK2): Kd (RCK)<1.

T2 sequence (P52333 811-1124 limits assumed): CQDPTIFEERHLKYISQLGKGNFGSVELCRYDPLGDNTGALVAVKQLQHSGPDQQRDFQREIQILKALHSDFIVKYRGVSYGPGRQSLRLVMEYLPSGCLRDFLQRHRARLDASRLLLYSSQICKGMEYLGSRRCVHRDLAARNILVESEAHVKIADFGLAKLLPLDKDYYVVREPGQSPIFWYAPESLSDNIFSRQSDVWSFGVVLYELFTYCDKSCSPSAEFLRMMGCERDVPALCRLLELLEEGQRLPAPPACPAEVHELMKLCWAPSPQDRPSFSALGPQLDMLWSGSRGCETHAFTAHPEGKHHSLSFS
T3 sequence (O60674 840-1132 limits assumed): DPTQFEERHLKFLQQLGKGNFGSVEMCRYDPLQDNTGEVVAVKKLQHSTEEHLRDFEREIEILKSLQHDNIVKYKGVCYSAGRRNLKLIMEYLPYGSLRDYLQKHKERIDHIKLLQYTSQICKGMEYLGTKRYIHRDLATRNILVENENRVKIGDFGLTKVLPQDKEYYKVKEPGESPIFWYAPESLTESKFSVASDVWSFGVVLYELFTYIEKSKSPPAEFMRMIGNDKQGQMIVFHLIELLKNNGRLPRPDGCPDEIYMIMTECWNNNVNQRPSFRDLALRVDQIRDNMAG

pKd [1]	pKd (JAK3)	pKd (JAK2)	SMILES	RCK:JAK3 selectivity ratio (JAK3)	RCK:JAK2 selectivity ratio (JAK2)
> 7.30	–	–	Cc1cc(Nc2n[nH]c(NCc3ccc(O)cc3)c2C(N)=O)ccc1N1CCOCC1	–	–
> 7.30	6.00 to 7.00	6.00 to 7.00	Cc1cc(CNc2[nH]nc(Nc3ccc(N4CCN(C(C)C)CC4)cc3)c2C(N)=O)cc(C)c1O [Compound 1, 5-((4-hydroxy-3,5-dimethylbenzyl)amino)-3-((4-(4-isopropylpiperazin-1-yl)phenyl)amino)-1H-pyrazole-4-carboxamide]	A (A represents Kd (JAK3): Kd (RCK)>100)	A (A represents Kd (JAK2): Kd (RCK)>100)
> 7.30	< 6.00	6.00 to 7.00	Cc1cc(CNc2[nH]nc(Nc3ccc(N4CCOCC4)c(Cl)c3)c2C(N)=O)cc(C)c1O [Compound 2, 3-((3-chloro-4-morpholinophenyl)amino)-5-((4-hydroxy-3,5-dimethylbenzyl)amino)-1H-pyrazole-4-carboxamide]	A (A represents Kd (JAK3): Kd (RCK)>100)	B (B represents 10<Kd(JAK2): Kd (RCK)<100)
> 7.30	< 6.00	6.00 to 7.00	Cc1cc(CNc2[nH]nc(Nc3ccc(N4CCOCC4)cc3)c2C(N)=O)cc(C)c1O [Compound 3, 5-((4-hydroxy-3,5-dimethylbenzyl)amino)-3-((4-morpholinophenyl)amino)-1H-pyrazole-4-carboxamide]	A (A represents Kd (JAK3): Kd (RCK)>100)	B (B represents 10<Kd(JAK2): Kd (RCK)<100)
6.00 to 7.00	< 6.00	< 6.00	Cc1cc(CNc2[nH]nc(Nc3ccc(N4C[C@@H](C)O[C@@H](C)C4)cc3)c2C(N)=O)cc(C)c1O [Compound 4, 3-((4-(2,6-dimethylmorpholino)phenyl)amino)-5-((4-hydroxy-3,5-dimethylbenzyl)amino)-1H-pyrazole-4-carboxamide]	B (B represents 10<Kd (JAK3): Kd (RCK)<100)	B (B represents 10<Kd(JAK2): Kd (RCK)<100)
6.00 to 7.00	< 6.00	< 6.00	Cc1cc(CNc2[nH]nc(Nc3cnc(N4CCOCC4)c(Cl)c3)c2C(N)=O)cc(C)c1O [Compound 5, 3-((5-chloro-6-morpholinopyridin-3-yl)amino)-5-((4-hydroxy-3,5-dimethylbenzyl)amino)-1H-pyrazole-4-carboxamide]	B (B represents 10<Kd (JAK3): Kd (RCK)<100)	B (B represents 10<Kd(JAK2): Kd (RCK)<100)
> 7.30	< 6.00	< 6.00	Cc1cc(CNc2[nH]nc(Nc3ccc(-n4cccc4)cc3)c2C(N)=O)cc(C)c1O [Compound 6, 3-((4-(1H-pyrrol-1-yl)phenyl)amino)-5-((4-hydroxy-3,5-dimethylbenzyl)amino)-1H-pyrazole-4-carboxamide]	A (A represents Kd (JAK3): Kd (RCK)>100)	A (A represents Kd (JAK2): Kd (RCK)>100)
7.00 to 7.30	< 6.00	6.00 to 7.00	Cc1cc(CNc2[nH]nc(Nc3ccc(N4CCOCC4)nc3)c2C(N)=O)cc(C)c1O [Compound 7, 5-((4-hydroxy-3,5-dimethylbenzyl)amino)-3-((6-morpholinopyridin-3-yl)amino)-1H-pyrazole-4-carboxamide]	B (B represents 10<Kd (JAK3): Kd (RCK)<100)	C (C represents 1<Kd (JAK2): Kd (RCK)<10)
7.00 to 7.30	< 6.00	< 6.00	Cc1cc(Nc2n[nH]c(NCc3cc(C)c(O)c(C)c3)c2C(N)=O)ccc1N1CCOCC1 [Compound 8, 5-((4-hydroxy-3,5-dimethylbenzyl)amino)-3-((3-methyl-4-morpholinophenyl)amino)-1H-pyrazole-4-carboxamide]	B (B represents 10<Kd (JAK3): Kd (RCK)<100)	B (B represents 10<Kd(JAK2): Kd (RCK)<100)
7.00 to 7.30	< 6.00	< 6.00	Cc1cc(CNc2[nH]nc(Nc3ccc(-c4ccccn4)cc3)c2C(N)=O)cc(C)c1O [Compound 9, 5-((4-hydroxy-3,5-dimethylbenzyl)amino)-3-((4-(pyridin-2-yl)phenyl)amino)-1H-pyrazole-4-carboxamide]	A (A represents Kd (JAK3): Kd (RCK)>100)	B (B represents 10<Kd(JAK2): Kd (RCK)<100)
7.00 to 7.30	< 6.00	< 6.00	Cc1cc(CNc2[nH]nc(Nc3ccc(N4CCN(C)CC4)cc3)c2C(N)=O)cc(C)c1O [Compound 10, 5-((4-hydroxy-3,5-dimethylbenzyl)amino)-3-((4-(4-methylpiperazin-1-yl)phenyl)amino)-1H-pyrazole-4-carboxamide]	A (A represents Kd (JAK3): Kd (RCK)>100)	B (B represents 10<Kd(JAK2): Kd (RCK)<100)
7.00 to 7.30	< 6.00	6.00 to 7.00	Cc1cc(CNc2[nH]nc(Nc3ccc(N4CCOCC4)cn3)c2C(N)=O)cc(C)c1O [Compound 11, 5-((4-hydroxy-3,5-dimethylbenzyl)amino)-3-((5-morpholinopyridin-2-yl)amino)-1H-pyrazole-4-carboxamide]	B (B represents 10<Kd (JAK3): Kd (RCK)<100)	C (C represents 1<Kd (JAK2): Kd (RCK)<10)
6.00 to 7.00	< 6.00	< 6.00	Cc1cc(Nc2n[nH]c(NCc3cc(C)c(O)c(C)c3)c2C(N)=O)cnc1N1CCOCC1 [Compound 12, 5-((4-hydroxy-3,5-dimethylbenzyl)amino)-3-((5-methyl-6-morpholinopyridin-3-yl)amino)-1H-pyrazole-4-carboxamide]	B (B represents 10<Kd (JAK3): Kd (RCK)<100)	B (B represents 10<Kd(JAK2): Kd (RCK)<100)
< 6.00	< 6.00	< 6.00	Cc1cc(Nc2n[nH]c(NCc3cc(C)c(O)c(C)c3)c2C(N)=O)cnc1N1CCN(C(C)C)CC1 [Compound 13, 5-((4-hydroxy-3,5-dimethylbenzyl)amino)-3-((6-(4-isopropylpiperazin-1-yl)-5-methylpyridin-3-yl)amino)-1H-pyrazole-4-carboxamide]	B (B represents 10<Kd (JAK3): Kd (RCK)<100)	B (B represents 10<Kd(JAK2): Kd (RCK)<100)
< 6.00	< 6.00	< 6.00	Cc1cc(Nc2n[nH]c(NCc3cc(C)c(O)c(C)c3)c2C(N)=O)cnc1N1CCN(C)CC1 [Compound 14, 5-((4-hydroxy-3,5-dimethylbenzyl)amino)-3-((5-methyl-6-(4-methylpiperazin-1-yl)pyridin-3-yl)amino)-1H-pyrazole-4-carboxamide]	B (B represents 10<Kd (JAK3): Kd (RCK)<100)	C (C represents 1<Kd (JAK2): Kd (RCK)<10)
7.00 to 7.30	< 6.00	< 6.00	Cc1cc(CNc2[nH]nc(Nc3ccc(N4C[C@@H](C)O[C@@H](C)C4)c(Cl)c3)c2C(N)=O)cc(C)c1O [Compound 15, 3-((3-chloro-4-(2,6-dimethylmorpholino)phenyl)amino)-5-((4-hydroxy-3,5-dimethylbenzyl)amino)-1H-pyrazole-4-carboxamide]	B (B represents 10<Kd (JAK3): Kd (RCK)<100)	B (B represents 10<Kd(JAK2): Kd (RCK)<100)

From US9730914B2, “3,5-diaminopyrazole kinase inhibitors” (Axikin Pharmaceuticals, Inc., priority 2014, dated 2017)
